Reference: US11174439B2, “Method to inhibit polymerization in a process water” (Ecolab USA, Inc., priority 2016, dated 2021)
“And” between values parts separate entries of the source, which are not always exact repeats. Equal values may be shown once. Blank lines part the entries; values can stand above or below the molecule they belong to.

Assay: Pygas-water partition coefficient determination (simulated pygas / de-ionized water, HPLC-MS)
Format: physicochemical
Details: for [sBuPDA] (ppm) in Undiluted Phase, Average / [HTMPO] (ppm) in Undiluted Phase, Average / [HTMPOH] (ppm) in Undiluted Phase, Average: average of 3 trials ± standard uncertainty; for [sBuPDA] (ppm) in Undiluted Phase / [HTMPO] (ppm) in Undiluted Phase / [HTMPOH] (ppm) in Undiluted Phase: individual trials 1-3; for Partition Ratio (pygas/aqueous): simulated pygas vs de-ionized water, ± standard uncertainty; for [HTMPO] (ppm) in Undiluted Phase: inhibitor 1.0 wt % total
Experimental: Pygas-water partition coefficients are determined by measuring the concentration of a polymerization inhibitor in a pygas-water mixture. In some embodiments, a pygas from an actual process water sample is used as the pygas in the determination; in some such embodiments, an actual process water is used. In other embodiments, a simulated pygas is formed and water is added to the simulated pygas for the determination. For purposes of providing measurements related to the disclosures herein, a simulated pygas consisting essentially of a mixture of toluene, styrene, cyclohexane, n-hexane, and dicyclopentadiene is employed. Partition coefficient is determined by mixing equal volumes of de-ionized water and simulated pygas, then adding a potential polymerization inhibitor at a concentration range of about 0.1 wt % to 5 wt %, in some embodiments, followed by a period of vigorous mixing, then a period of standing undisturbed to allow the phases to separate; the relative concentration of a species in each phase determines the partition coefficient. For purposes of partition coefficients recited herein, the test is conducted at a target inhibitor concentration of 1 wt % (10,000 ppm) followed by vigorous mixing for 30 minutes, followed by allowing the mixture to stand substantially unperturbed for 30 minutes. The pygas and aqueous phases that result in the unperturbed mixture are separated and concentration of the potential polymerization inhibitor in each phase is quantified, for example by high performance liquid chromatography coupled with mass spectrometry analysis (HPLC-MS). The partition ratio, or partition coefficient, of the potential polymerization inhibitor between the pygas and aqueous phases is then calculated according to the formula
[formula] where P is the partition coefficient, [I]pygas is the concentration of the potential polymerization inhibitor in the pygas phase, and [I]aqueous is the concentration of potential polymerization inhibitor in the aqueous phase.
The partition ratio of the polymerization inhibitor […]-2,2,6,6-tetramethylpiperidinyl-1-oxyl (HTMPO) between pygas and aqueous phases was determined by the following procedure. HTMPO was added to a mixture of equal volumes of de-ionized water and simulated pyrolysis gasoline (pygas). The simulated pygas consisted of a mixture of toluene, styrene, cyclohexane, n-hexane, and dicyclopentadiene. The amounts of inhibitor and liquid phases used were such that the inhibitor was present at a total concentration of 1.0 wt % based on the weight of the combined phases.
The system consisting of the inhibitor, pygas phase, and aqueous phase was vigorously stirred for thirty minutes, after which time it was allowed to sit undisturbed for an additional thirty minutes. The immiscible pygas and aqueous phases were then separated.
A stock solution of known concentration of HTMPO in acetonitrile was diluted with water/acetonitrile to give five different solutions at concentrations spanning an appropriate working range of a high performance liquid chromatograph (HPLC) coupled to a mass spectrometer with an electrospray ionization (ESI) source. The five dilute solutions were analyzed as standards using HPLC-MS, and the areas of the peaks corresponding to HTMPO in these solutions were used to construct a calibration curve of peak area vs. concentration (mass fraction, ppm).
The pygas phase of unknown concentration of HTMPO, separated from the aqueous phase in the first part of the experiment, was diluted with water/acetonitrile to give a solution whose concentration was within the range of the calibration curve. The dilute pygas solution was analyzed by HPLC-MS, and the concentration of HTMPO in this pygas solution was calculated by interpolation of its HTMPO peak area into the calibration curve. The concentration of HTMPO in the original, undiluted pygas phase was calculated by applying the dilution factor to the interpolated concentration of the diluted solution. […]

[sBuPDA] (ppm) in Undiluted Phase, Average (Aqueous Phase): 0.29 ± 0.03 ppm | [sBuPDA] (ppm) in Undiluted Phase (Aqueous Phase): 0.29 ppm and 0.26 ppm and 0.32 ppm | [sBuPDA] (ppm) in Undiluted Phase, Average (Pygas Phase): 4075 ± 161.6 ppm | [sBuPDA] (ppm) in Undiluted Phase (Pygas Phase): 4218.2 ppm and 4109.2 ppm and 3900.2 ppm | Partition Ratio (pygas/aqueous) (sBuPDA): 14000 ± 2000
Compound: CCC(C)Nc1ccc(NC(C)CC)cc1 (stereo not drawn) [sBuPDA, N,N′-di-sec-butyl-1,4-phenylenediamine]

Compound: CC1(C)CC(O)CC(C)(C)N1[O] [HTMPO, 4-hydroxy-2,2,6,6-tetramethylpiperidinyl-1-oxyl]
[HTMPO] (ppm) in Undiluted Phase, Average (Aqueous Phase): 7410.8 ± 453.5 ppm | [HTMPO] (ppm) in Undiluted Phase (Aqueous Phase): 7155.2 ppm and 7142.9 ppm and 7934.4 ppm | Partition Ratio (pygas/aqueous) (HTMPO): 0.079 ± 0.008 | [HTMPO] (ppm) in Undiluted Phase, Average (Pygas Phase): 582.8 ± 47.0 ppm | [HTMPO] (ppm) in Undiluted Phase (Pygas Phase, equal volumes de-ionized water and simulated pygas): 597.8 ppm and 530.2 ppm and 620.5 ppm

Compound: CC1(C)CC(O)CC(C)(C)N1O [HTMPOH, 1,4-dihydroxy-2,2,6,6-tetramethylpiperidine]
[HTMPOH] (ppm) in Undiluted Phase, Average (Aqueous Phase): 2829.8 ± 79.0 ppm | [HTMPOH] (ppm) in Undiluted Phase (Aqueous Phase): 2807.5 ppm and 2764.3 ppm and 2917.6 ppm | Partition Ratio (pygas/aqueous) (HTMPOH): 0.0096 ± 0.0003 | [HTMPOH] (ppm) in Undiluted Phase, Average (Pygas Phase): 27.2 ± 0.6 ppm | [HTMPOH] (ppm) in Undiluted Phase (Pygas Phase): 27.8 ppm and 26.6 ppm and 27.2 ppm
